Results published in patent publication US8551966B2, “Chemical compounds” (priority 2011, dated 2013).
Like-named read-outs stand apart in the source and are kept apart here.

Columns and labels:
[1] = tested on: wildtype measles virus strain WTFb in B95a marmoset B lymphocytes; experiment: Measles syncytium reduction assay; type: cell-based; conditions: for Measles IC100/μM (b): concentration giving total suppression of syncytia formation, B95a cells, 50 syncytium forming units per well; for potency with respect to measles virus: statement in words on Table I data
VACV-WR in BSC-1 cells = experiment: microbe, parasite or virus in culture; type: cell-based, vaccinia virus; conditions: read-out: VV plaque size IC50 μM (c)
[2] = tested on: recombinant vaccinia virus strain WR (VACV-WR) 'v3' expressing firefly luciferase, in RK13 cells; experiment: microbe, parasite or virus in culture; type: cell-based; conditions: for activity at 10 µM: Orthopoxvirus vaccinia, RK-13, 2 h, read-out: VV % activity at 10 μM (a)

Structure (SMILES)	activity at 10 µM [2] [%]	other results
CCCCCOCCCCCCCCCc1cc2cn([C@H]3CC[C@@H](CO)O3)c(=O)nc2o1 [Cf 2095, reference compound]		Measles IC100/μM (b) [1]: Inactive; potency with respect to measles virus [1]: inactive; IC50 (VACV-WR in BSC-1 cells): 1.5 µM; VV % activity at 10 μM (a) [2]: 75%
CCCCCCc1cc2cn([C@@H]3CC[C@H](CO)O3)c(=O)nc2o1 [Cf 3153, 3-(2′,3′-dideoxy-ribo-β-L-furanosyl)-6-hexylfuro[2,3-d]pyrimidin-2(3H)-one]	50	
CCCCCCCCc1cc2cn([C@@H]3CC[C@H](CO)O3)c(=O)nc2o1 [Cf 3154, 3-(2′,3′-dideoxy-ribo-β-L-furanosyl)-6-octylfuro[2,3-d]pyrimidin-2(3H)-one]	23	potency with respect to vaccinia virus compared to comparative compound Cf2095 [2]: greatly enhanced potency
CCCCCCCCCCc1cc2cn([C@@H]3CC[C@H](CO)O3)c(=O)nc2o1 [Cf 3155, 3-(2′,3′-dideoxy-ribo-β-Lfuranosyl)-6-decylfuro[2,3-d]pyrimidin-2(3H)-one]	24	potency with respect to vaccinia virus compared to comparative compound Cf2095 [2]: greatly enhanced potency
CCCCCCCCCCCCc1cc2cn([C@@H]3CC[C@H](CO)O3)c(=O)nc2o1 [Cf 3156, 3-(2′,3′-dideoxy-ribo-β-L-furanosyl)-6-dodecylfuro[2,3-d]-pyrimidin-2(3H)-one]	65	
CCCCCCCc1cc2cn([C@@H]3CC[C@H](CO)O3)c(=O)nc2o1 [Cf 3174, 3-(2′,3′-dideoxy-ribo-β-L-furanosyl)-6-septylfuro[2,3-d]pyrimidin-2(3H)-one]	41	
CCCCCCCCCc1cc2cn([C@@H]3CC[C@H](CO)O3)c(=O)nc2o1 [Cf 3175, 3-(2′,3′-dideoxy-ribo+L-furanosyl)-6-nonylfuro[2,3-d]pyrimidin-2(3H)-one]	24	Measles IC100/μM (b) [1]: 5 to 10 µM; potency with respect to vaccinia virus compared to comparative compound Cf2095 [2]: greatly enhanced potency
CCCCc1ccc(-c2cc3cn([C@@H]4CC[C@H](CO)O4)c(=O)nc3o2)cc1 [Cf 3176, 3-(2′,3′-dideoxy-ribo-β-L-furanosyl)-6-(4-n-butylphenyl)[2,3-d]pyrimidin-2(3H)-one]	44	
CCCCCc1ccc(-c2cc3cn([C@@H]4CC[C@H](CO)O4)c(=O)nc3o2)cc1 [Cf 3177, 3-(2′,3′-dideoxy-ribo-D-L-furanosyl)-6-(4-n-pentylphenyl) [2,3-d]pyrimidin-2(3H)-one]	47	
CCCOCCCCCCCCCc1cc2cn([C@@H]3CC[C@H](CO)O3)c(=O)nc2o1 [Cf 3204, 3-(2′,3′-dideoxy-ribo-β-L-furanosyl)-6-propyloxynonylfuro[2,3-d]pyrimidin-2(3H)-one]	41	
CCCCOCCCCCCCCCc1cc2cn([C@@H]3CC[C@H](CO)O3)c(=O)nc2o1 [Cf 3207, 3-(2′,3′-dideoxy-ribo-β-L-furanosyl)-6-butyloxynonylfuro[2,3-d]pyrimidin-2(3H)-one]	29	
CCCCCOCCCCCCCCCc1cc2cn([C@@H]3CC[C@H](CO)O3)c(=O)nc2o1 [Cf 3208, 3-(2′,3′-dideoxy-ribo-β-L-furanosyl)-6-pentyloxynonylfuro[2,3-d]pyrimidin-2(3H)-one]	24	Measles IC100/μM (b) [1]: 1 to 5 µM; potency with respect to measles virus [1]: significant potency; IC50 (VACV-WR in BSC-1 cells; Orthopoxvirus vaccinia, BSC-1, 72 h): 0.1 µM; potency with respect to vaccinia virus compared to comparative compound Cf2095 [2]: greatly enhanced potency
CCCCCCOCCCCCCCCCc1cc2cn([C@@H]3CC[C@H](CO)O3)c(=O)nc2o1 [Cf 3209, 3-(2′,3′-dideoxy-ribo-β-L-furanosyl)-6-hexyloxynonylfuro[2,3-d]pyrimidin-2(3H)-one]	46	
CCOCCCCCCCCCc1cc2cn([C@@H]3CC[C@H](CO)O3)c(=O)nc2o1 [Cf 3210, 3-(2′,3′-dideoxy-ribo-O-L-furanosyl)-6-ethyloxynonylfuro[2,3-d]pyrimidin 2(3H)-one]	72	
CCCCCCOCCCCCCCCc1cc2cn([C@@H]3CC[C@H](CO)O3)c(=O)nc2o1 [Cf 3230, 3-(2′,3′-dideoxy-ribo-β-L-furanosyl)-6-hexyloxyoctylfuro[2,3-d]pyrimidin-2(3H)-one]	29	
CCCCCCCCCCOCCCCc1cc2cn([C@@H]3CC[C@H](CO)O3)c(=O)nc2o1 [Cf 3231, 3-(2′,3′-dideoxy-ribo-β-L-furanosyl)-6-decyloxybutylfuro[2,3-d]pyrimidin-2(3H)-one]	26	
CCCCCCCCCCCCCOCc1cc2cn([C@@H]3CC[C@H](CO)O3)c(=O)nc2o1 [Cf 3232, 3-(2′,3′-dideoxy-ribo-β-L-furanosyl)-6-tridecyloxymethylfuro[2,3-d]pyrimidin-2(3H)-one]	45	Measles IC100/μM (b) [1]: 1 to 5 µM; potency with respect to measles virus [1]: significant potency
CCCCCOCCCCCCCCCc1cc2cn([C@@H]3CC[C@H](CO)O3)c(=O)nc2n1C [Cf 3242, 3-(2′,3′-dideoxy-ribo-β-L-furanosyl)-6-pentyloxynonyl-N-methyl-pyrrolo[2,3-d]pyrimidin-2(3H)-one]	15	Measles IC100/μM (b) [1]: 5 to 10 µM; potency with respect to vaccinia virus compared to comparative compound Cf2095 [2]: greatly enhanced potency
CCCCCOCCCCCCCCCc1cc2cn([C@@H]3CC[C@H](CO)O3)c(=O)nc2[nH]1 [Cf 3253, 3-(2′,3′-dideoxy-ribo-β-L-furanosyl)-6-pentyloxynonyl-pyrrolo[2,3-d]pyrimidin-2(3H)-one]	52	
COCCCCCCCCCCCCCc1cc2cn([C@@H]3CC[C@H](CO)O3)c(=O)nc2o1 [Cf 3254, 3-(2′,3′-dideoxy-ribo-β-L-furanosyl)-6-methyloxytridecylfuro[2,3-d]pyrimidin-2(3H)-one]	59	
